Assay results published in patent US12065648B2, “Methods and compositions for inhibiting detoxification response” (priority 2015, dated 2024).

How the values were obtained:
[1] = tested on: dhs-9 transcriptional GFP fusion gene; assay: Transcriptional GFP fusion gene induction: dhs-9; assay type: in vivo, C. elegans; details: n = 20
Procedure: (§1) G418 (GoldBio) or hygromycin (GoldBio) was diluted in M9 to the desired concentration and added onto preseeded OP50 E. coli bacteria containing NGM plates. The plates were dried uncovered in the hood for at least 1 hour before seeding the worms. For the drug experiments, synchronized L1-stage animals were dropped onto the drug containing plates and scored later. For drug resistance assays synchronized L1 larval stage animals of the appropriate genotype were fed with either control RNAi or with RNAi clones targeting bile acid biosynthetic pathways until they reach day two of adulthood. Subsequently, the RNAi-treated animals were egg-prepped to obtain synchronized L1 larvae. ˜100 L1 larvae were added to the plates containing G418. 100 nM of Δ^4-Dafachronic Acid or (25S)-Δ^7-Dafachronic Acid from Cayman Chemical were used.
(§2) Nematodes were mounted onto agar pads and images were taken using a Zeiss AXIO Imager Z1 microscope fitted with a Zeiss AxioCam HRm camera and Axiovision 4.6 (Zeiss) software. Fluorescent images were converted to 16-bit images, thresholded and quantified using ImageJ. Student's t test was used determine statistical significance. […]

[2] = tested on: cyp-13a7 transcriptional GFP fusion gene; assay type: in vivo, C. elegans; details: n = 20
Procedure: as §1
(§3) Nematodes were mounted onto agar pads and images were taken using a Zeiss AXIO Imager Z1 microscope fitted with a Zeiss AxioCam HRm camera and Axiovision 4.6 (Zeiss) software. Fluorescent images were converted to 16-bit images, thresholded and quantified using ImageJ. Student's t test was used determine statistical significance.
(§4) Inactivation of C. elegans translation components by feeding the animals E. coli expressing specific dsRNAs targeting translation factor mRNAs induces the expression of xenobiotic detoxification genes, bacterial pathogen response genes, and aversion behavior2-4 (FIG. 1A-C; Table 1, 2 and 3). Toxins, such as the eukaryotic translation inhibitors G418 produced by the bacteria Micromonospora rhodorangea5 or hygromycin, produced by the soil bacteria Streptomyces hygroscopicus6 also induce these responses.
(§5) Detoxification responses in animals include, cytochrome P450's (CYPs), UDP-glucuronosyltransferases (UGTs), glutathione S-transferases (GSTs), and p-glycoprotein transporters (PGPs) (FIGS. 1A & 1C; FIG. 6 A-B; Table 1, 2 and 3). We chose a pgp-5::gfp fusion gene for assays of xenobiotic detoxification induction in response to G418 or hygromycin or ribosomal assaults via RNAi (FIGS. 1A & C; FIG. 6 A-B; Table 1, 2 and 3) because of the robust response of this reporter gene and validation of this gene induction from microarray gene expression analysis in response to translational inhibition by toxins or RNAi4.

[3] = tested on: cyp-31a3 transcriptional GFP fusion gene; assay type: in vivo, C. elegans; details: n = 20
Procedure: as §1, §3, §4, §5

[4] = tested on: cyp-35B1 transcriptional GFP fusion gene; assay type: in vivo, C. elegans; details: n = 20
Procedure: as §1, §3, §4, §5

[5] = tested on: cyp-25a2 transcriptional GFP fusion gene; assay type: in vivo, C. elegans; details: n = 20
Procedure: as §1, §3, §4, §5

[6] = tested on: cyp-37A1 transcriptional GFP fusion gene; assay type: in vivo, C. elegans; details: n = 20
Procedure: as §1, §3, §4, §5

[7] = tested on: cyp-14A3 transcriptional GFP fusion gene; assay type: in vivo, C. elegans; details: n = 20
Procedure: as §1, §3, §4, §5

[8] = tested on: cyp-34A9 transcriptional GFP fusion gene; assay type: in vivo, C. elegans; details: n = 20
Procedure: as §1, §3, §4, §5

[9] = tested on: mrp-2 transcriptional GFP fusion gene; assay: Transcriptional GFP fusion gene induction: mrp-2; assay type: in vivo, C. elegans; details: n = 20
Procedure: as §1, §2

[10] = tested on: ugt-58 transcriptional GFP fusion gene; assay: Transcriptional GFP fusion gene induction: ugt-58; assay type: in vivo, C. elegans; details: n = 20
Procedure: as §1, §2

[11] = tested on: pgp-9 transcriptional GFP fusion gene; assay: Transcriptional GFP fusion gene induction: pgp-9; assay type: in vivo, C. elegans; details: n = 20
Procedure: as §1, §2

[12] = tested on: ugt-61 transcriptional GFP fusion gene; assay: Transcriptional GFP fusion gene induction: ugt-61; assay type: in vivo, C. elegans; details: n = 20
Procedure: as §1, §2

C. elegans [13] = assay: Drug resistance assay (G418 or hygromycin) after RNAi; assay type: in vivo; details: control RNAi treated wildtype animals; 0.2 mg/ml G418
Procedure: as §1

[14] = tested on: pgp-6 transcriptional GFP fusion gene; assay: Transcriptional GFP fusion gene induction: pgp-6; assay type: in vivo, C. elegans; details: n = 20
Procedure: as §1, §2

[15] = tested on: pgp-4 transcriptional GFP fusion gene; assay: Transcriptional GFP fusion gene induction: pgp-4; assay type: in vivo, C. elegans; details: n = 20
[16] = tested on: haf-7 transcriptional GFP fusion gene; assay: Transcriptional GFP fusion gene induction: haf-7; assay type: in vivo, C. elegans; details: n = 20
Procedure: as §1, §2

[17] = tested on: abch-1 transcriptional GFP fusion gene; assay: Transcriptional GFP fusion gene induction: abch-1; assay type: in vivo, C. elegans; details: n = 20
Procedure: as §1, §2

pgp-5::gfp [18] = assay: pgp-5::gfp induction in animals without germline translation mutation (toxin, RNAi, bile acids, lipid extracts); assay type: in vivo, C. elegans; details: pgp-5 transcriptional GFP fusion gene; n = 20
Procedure: as §1
Nematodes were mounted onto agar pads and images were taken using a Zeiss AXIO Imager Z1 microscope fitted with a Zeiss AxioCam HRm camera and Axiovision 4.6 (Zeiss) software. Fluorescent images were converted to 16-bit images, thresholded and quantified using ImageJ. […]
RNAi bacteria expressing the dsRNA corresponding to each worm gene were grown in LB media with 25 μg/ml carbenicillin overnight and seeded onto RNAi agar plates containing 1 mM IPTG. […] In the primary screen, the plates were screened visually for changes in GFP fluorescence and worm developmental defects. […]

[19] = tested on: ugt-22 transcriptional GFP fusion gene; assay: Transcriptional GFP fusion gene induction: ugt-22; assay type: in vivo, C. elegans; details: n = 20
Procedure: as §1, §2

[20] = tested on: pmp-4 transcriptional GFP fusion gene; assay: Transcriptional GFP fusion gene induction: pmp-4; assay type: in vivo, C. elegans; details: n = 20
[21] = tested on: pgp-3 transcriptional GFP fusion gene; assay: Transcriptional GFP fusion gene induction: pgp-3; assay type: in vivo, C. elegans; details: n = 20
Procedure: as §1, §2

[22] = tested on: ugt-8 transcriptional GFP fusion gene; assay: Transcriptional GFP fusion gene induction: ugt-8; assay type: in vivo, C. elegans; details: n = 20
Procedure: as §1, §2

[23] = tested on: dhs-19 transcriptional GFP fusion gene; assay: Transcriptional GFP fusion gene induction: dhs-19; assay type: in vivo, C. elegans; details: n = 20
Procedure: as §1, §2

pgp-5::gfp [24] = assay: pgp-5::gfp induction in germline translation-defective eft-3(q145);pgp-5::gfp strain (RNAi, bile acid rescue, microbes); assay type: in vivo, C. elegans; details: bile acids at 100 uM
Source text: Secondary screens were similarly done on the eft-3(q145):pgp-5::gfp strain.
To explore the types of lipids that the dhs-28. daf-22 pathway generates to regulate the induction of pgp-5::gfp expression in translation-defective animals, we tested whether defects in CAs-28 or daf-22-mediated lipid/bile acid biosynthesis could be rescued for pgp-5::gfp induction by addition of purified mammalian bile acids (FIG. 9B). […] These bile acids preparations are 95% pure.

C. elegans [25] = assay: Effect of microbes on C. elegans growth; assay type: in vivo; details: C. elegans grown on the microbe
Procedure: 16S ribosomal sequence was amplified using specific primers and sequenced to identify the microbes. BHI media as well as plates was used for culturing and testing the effect of Enterococcus faecalis and E. faecium on worms. For Saccharomyces boulardi, YPD media was used for growing the yeast and a concentrated culture was added to SK media. For Lactobacillus spp, Lactobacilli broth was used for growing and then a concentrated culture was added to SK media. SK media was used for all the other microbes.
Many of the bacterial strains allowed normal growth of C. elegans, but some caused developmental arrest, perhaps due to toxins or virulence factors that disrupt essential C. elegans processes.

For `CN[C@@H]1[C@@H](O)[C@@H](O[C@@H]2[C@@H](O)[C@H](O[C@H]3O[C@H]([C@@H](C)O)[C@@H](O)[C@H](O)[C@H]3N)[C@@H](N)C[C@H]2N)OC[C@]1(C)O` [G418], the “% Animals with gfp induction” value [1] was 0 (n = 20) %, the “% Animals with gfp induction” value [2] was 0 (n = 20) % and the “% Animals with gfp induction” value [3] was 80 (n = 20) %. For the same compound, the “% Animals with gfp induction” value [4] was 0 (n = 20) %, the “% Animals with gfp induction” value [5] was 0 (n = 20) % and the “% Animals with gfp induction” value [6] was 0 (n = 20) %. For the same compound, the “% Animals with gfp induction” value [7] was 0 (n = 20) %, the “% Animals with gfp induction” value [8] was 0 (n = 20) % and the “% Animals with gfp induction” value [9] was 80 (n = 20) %. For the same compound, the “% Animals with gfp induction” value [10] was 0 (n = 20) %, the “% Animals with gfp induction” value [11] was 100 (n = 20) % and the “% Animals with gfp induction” value [12] was 0 (n = 20) %. For the same compound, the “animals that grew to adulthood” value (C. elegans [13]) was greater than 40%, the “% Animals with gfp induction” value [14] was 100 (n = 20) % and the “% Animals with gfp induction” value [15] was 0 (n = 20) %. For the same compound, the “% Animals with gfp induction” value [16] was 0 (n = 20) %, the “% Animals with gfp induction” value [17] was 0 (n = 20) % and the “% Animals with gfp induction” value (pgp-5::gfp [18]) was 100 (n = 20) %. The “% Animals with gfp induction” value [19] was 0 (n = 20) %, the “% Animals with gfp induction” value [20] was 65 (n = 20) % and the “% Animals with gfp induction” value [21] was 0 (n = 20) %. The “% Animals with gfp induction” value [22] was 0 (n = 20) % and the “% Animals with gfp induction” value [23] was 0 (n = 20) %.

In the case of `C[C@H](CCC(=O)O)[C@H]1CC[C@H]2[C@@H]3[C@H](O)C[C@@H]4C[C@H](O)CC[C@]4(C)[C@H]3CC[C@]12C` [chenodeoxycholic acid], the “rescue of the defect in pgp-5::gfp induction caused by daf-22 or dhs-28 gene inactivations” value (pgp-5::gfp [24]) is reported as “rescued the defect in induction of pgp-5::gfp”.

With `CC(CCC(=O)NCC(=O)O)C1CCC2C3C(O)CC4CC(O)CCC4(C)C3CCC12C` (stereo not drawn) [glycochenodeoxycholic acid] the “rescue of the defect in pgp-5::gfp induction caused by daf-22 or dhs-28 gene inactivations” value (pgp-5::gfp [24]) was “rescued the defect in induction of pgp-5::gfp”.

In the case of Lactobacillus plantarum, the “% Animals that reach adulthood” value (C. elegans [25]) is reported as 0% and the “developmental outcome on the microbe (arrest stage, slow growth, normal)” value (C. elegans [25]) is reported as “slow growth”.
